According to patent US20230399358A1, “IMMUNOGLOBULIN PURIFICATION PEPTIDES AND THEIR USE” (North Carolina State University, priority 2019, published 2023):

Legend:
[1] = tested on: human polyclonal IgG in CHO cell culture fluid; experiment: Chromatographic purification of IgG from CHO cell culture fluid on WorkBeads resin, SDS-PAGE densitometry; conditions: Elution 1 (pH 4), 5 min residence time, FIG. 7B
Protocol: (§1) Purification of IgG from CHO Cell culture fluids using MWRGWQC (SEQ ID NO:31)- and WQRHGIC (SEQ ID NO:30)—Workbeads: A volume of 0.1 mL of resin was packed in a PEEK microbore column, installed on a Waters 2695 unit, and equilibrated with PBS, pH 7.4. All chromatographic buffers were filtered through a compatible 0.2 μm filter prior to use. A volume of 100 μL of solution of human polyclonal IgG at 1 mg/mL in a CHO cell culture fluid at 0.205 mg/mL CHO HCPs was injected in the column at 0.02 mL/min (RT: 5 minutes). Following injection, the resin was washed with PBS at 0.2 mL/min and, subsequently, with 100 mM NaCl in PBS at 0.2 mL/min. Elution was then conducted with […] pH 4. An acidic cleaning step was conducted in 0.1 M glycine pH 2.5 to remove any proteins still bound. The absorbance of the effluent was monitored by UV/Vis spectrophotometry at 280 nm. Fractions were collected and adjusted to neutral pH. Total protein concentration was measured by BCA assay. All collected fractions were also analyzed via SDS PAGE under reducing conditions. The gel was stained by silver staining, and the overall IgG purity in the eluted fractions was determined by densitometric analysis using ImageJ software. Finally, the feed and eluted fractions were analyzed using a CHO-specific ELISA kit to determine the log removal value (LRV) of HCPs.
The high purity of the recovered IgG using WQRHGI (SEQ ID NO:1), as calculated by densitometric analysis (100%) was confirmed by the HCP LRV value of 2.7, thus indicating WQRHGI (SEQ ID NO:1) has purification abilities similar to Protein A. This is a remarkable result. […] The collected chromatographic fractions were analyzed by SDS-PAGE (FIG. 7B, silver stained to highlight diluted CHO HCPs). The % values of IgG in the fractions (expressed as a ratio of IgG concentration over total protein (e.g., IgG+CHO HCPs)) were calculated by densitometric analysis of the lanes in the SDS gel and were as follows: Control (C), 0.00%; Load (L) 59.77%; Flowthrough (FT), 0.00%; Elution 1 (El1), 100.00%; Elution 2 (El2), 0.00%; IgG 93.30%. […]

[2] = tested on: human polyclonal IgG; experiment: Static binding isotherm on WorkBeads adsorbents, Langmuir fit; conditions: WorkBeads adsorbent, PBS pH 7.4, Langmuir fit
From the text: Measurements of static and dynamic binding capacity: […] NO:2)-Workbeads and […] NO:30)-Workbeads were characterized in terms of static and dynamic binding capacity respectively by batch and breakthrough binding studies. The peptides […] NO:3) and […] NO:4) were not selected for further studies due to their low selectivity and low yield, respectively. […] The resin was pelleted by centrifugation and the supernatant removed. […] The resulting fractions were combined and analyzed by BCA assay to quantify the unbound IgG and, accordingly, the amount of IgG adsorbed. The resulting data were fit to a Langmuir isotherm to determine the values of Qmax and KD(Solid). […] The amount of unbound IgG was determined by analyzing the supernatants via Micro BCA Protein Assay Kit. The amount of bound IgG per volume of resin (Q) was determined by mass balance and plotted against the corresponding equilibrium concentration of unbound IgG in solution (CIgG). The data were fit to a Langmuir isotherm model, thus providing a value of maximum binding capacity (Qmax) and dissociation constant (KD).

[3] = tested on: CHO HCPs; experiment: CHO HCP-specific ELISA, log removal value of HCPs; set-up: species or system Chinese hamster
Protocol: as §1, with “HCPs. […]” for “HCPs.”

Qmax [2]: 52.6 mg IgG/mL resin
Kd ([2]; read-out: KD(Solid)): 3.2 µM
Substance: WQRHGI
% IgG over total protein [1]: 100%
HCP clearance [3]: greater than 99%
HCP LRV ([3]; IgG 1 mg/mL in CHO fluid with 0.205 mg/mL HCPs, elution pH 4): 2.7
